In patent US20250009844A1, “MATURATION OF MUCOSAL DEFENSE AND GUT/LUNG FUNCTION IN THE PRETERM INFANT” (Novozymes A/S, priority 2017, published 2025):
“Also recorded” adds a separate entry of the source. No end group written: not given here.

Columns and labels:
[1] = Prophylactic high fat diet murine model, weight change (Example 1); format: in vivo, mice; conditions: HFD plus hBD-2 1,2 mg per kg per day in diet vs HFD reference group; 10 week study period; p=0.0028
Source text: (§1) The overall experimental design is shown in FIG. 1, top panel “Prophylactic study”. Mice: Mice were housed in trios, 4 cages per group. Feed intake was registered daily just before lights were turned off at 6 pm. Individual mice were subjected to experimental procedures in altered order both group and cage wise. Mice were kept at room temperature under a 12-hour light/dark cycle at SPF standard conditions. Diets: For dosing, the average weight was estimated to be 25 grams per mouse. Mice eat approximately 3 grams of feed per mouse per day.
(§2) Treatment regime: Mice were fed either a high fat diet (HFD) or a low fat (LF) control diet. The HFD contained 4 subgroups; a) hBD-2, b) HD5, c) hBD-2/HD5 and d) standard HFD without supplementation of defensins. Defensin concentration was 1,2 mg hBD-2 per kg mouse per day. HD5 was given in equimolar concentration to hBD-2.

[2] = system: microbiota of the intestine; test: Prophylactic high fat diet murine model, 16S microbial analyses (Example 1); format: in vivo, mice
Source text: as §1, §2
Microbial analyses were carried out to study the microbiota of the intestine. Longitudinal 16S characterization was conducted on 4 paired samples from 60 mice, 240 samples in total. Each mouse was sampled prior to diet change, 1 week post diet change, 4 weeks post diet change and at termination, thus ensuring a thorough characterization of the faecal microbiota as a result of defensin treatment.

[3] = system: SCID mice; test: Therapeutic, murine, 14 weeks, CD4+CD25+ T cell transfer induced colitis model (Example 4); format: in vivo
Source text: Treatment regime: 70 female BALB/c mice housed in groups of five per cage were allocated to 7 different treatment groups. Colitis was induced in SCID mice by transplantation of CD4+CD25 Tcells from BALB/c mice. Lymphocytes isolated from spleen and lymph nodes from BALB/c mice were subjected to negative selection of CD4+Tcells. Afterwards, CD4+CD25+cells were positively isolated by binding to the beads from the CD4+Tcell suspensions and the CD4+CD25—were collected from the supernatant. The animals were treated with hBD-2, 0.1 mg/kg s.c. once daily 86consecutive days from day 7 (OD); 1 mg/kg s.c. OD or 3 mg/kg s.c. OD;with mouse anti TNFa 100 μg/mouse s.c. twice weekly (enbrel); with dexamethasone 0.3 mg/kg intraperitoneally OD (dex); with PBS s.c. as vehicle from day 7 and 86 consecutive days (vehicle) or sham treated (sham).
Treatment groups: • 1. 0.1 mg/kg hBD-2, once daily subcutaneously (n=11) • 2. 1 mg/kg hBD-2, once daily subcutaneously (n=11) • 3. 3 mg/kg hBD-2, once daily subcutaneously (n=11) • 4. PBS (hBD-2 vehicle), once daily subcutaneously (n=11) • 5. 0.3 mg/kg Dexamethasone, once daily intraperitoneally (n=11) • 6. 100 μg/mouse soluble human 75-kilodalton TNF receptor linked to Fc portion of IgG1 (Enbrel), twice a week subcutaneously (n=11) • 7. Sham treated group (n=6)
Clinical assessment was based on body weight loss, stool consistency and presence of blood per rectum. The animals were sacrificed on day 95 and colon removed for assessment of weight and myeloperoxidase activity.

[4] = system: BALB/c mice; test: Murine model of acute graft versus host disease following stem cell transplantation, oral hBD-2 (Example 11); format: in vivo; conditions: for Intestinal T cell infiltration / Myeloid cell infiltration / Infiltration with CD45+ leucocytes: lamina propria; for Infiltration with CD45+ leucocytes: FACS analysis
Procedure: Bone marrow was harvested: hind limbs harvested from 2 female WT C57BL/6 mice aseptically. Skeletal muscle was removed and epiphysis cut away. Lumen of bone flushed with PBS and cells pelleted and taken up. Harvest of T-cells: spleens from 2 female WT C57BL/6 mice were meshed through a […] cell strainer into a PBS filled dish. Cells were taken up in PBS and transferred into a 50 mL falcon tube and spun down. Cells were taken up in 1 mL PBS and 20 μL of CD4 microbead+20 μL CD8 microbeads per spleen added for incubation for 20 min at 4 degrees C. Cells were washed with PBS and applied to MACS separation in order to positively select CD4+ and CD8+ cells. Positively selected T-cells were counted and taken up. Transplantation: directly after the second irradiation, all WT BALB/c recipient mice were injected with 5×1.000.000 BM cells (50 μL) i.v. into the retroorbital venous plexus under isoflurane anesthesia. 15 BALB/c mice were treated with 1.2 mg of hBD2/kg BW/day in 100 μL PBS per day vial oral gavage from day 0-10.
15 BALB/c mice received vehicle 100 μL PBS per day via oral gavage from day 0-10.
The mice were weighed daily for the initial 7 days and survival was monitored for 100 days.

[5] = same three dosing regimens, sacrifice day 95

human beta defensin 2 (GIGDPVTCLKSGAICHPVFCPRRYKQIGTCGLPGTKCCKKP; ends and bridges not checked; cysteine pairing not given here; listed as Homo sapiens) [hBD-2]
Weight gain [1]: gained significantly less weight than the HFD reference group
Abundance of Barnesiella ([2]; colon, prophylactic treatment, p<0.03): statistically significant increase in abundance of Barnesiella
Abundance of Lactobacillus ([2]; colon, prophylactic treatment, p=0.1): trend towards lower abundance of Lactobacillus
Microbial presence and abundance (unifrac, genus analysis) ([2]; prophylactic oral defensin in HFD, 1,2 mg hBD-2 per kg per day, HD5 equimolar, mix 50%+50%): affected primarily the microbial presence
Clinical score (body weight loss, stool consistency, blood per rectum) ([3]; hBD-2 1 mg/kg s.c. OD, Dexamethasone 0.3 mg/kg i.p. OD, Enbrel 100 μg/mouse s.c. twice weekly, from day 7): statistically significant and similar effect on clinical score; also recorded: on par with 100 μg/mouse anti TNF-α s.c. twice weekly (Enbrel) and 0.3 mg/kg dexamethasone
Colon weight [3, 5]: statistically significant and similar effect on colon weight; also recorded: on par with 100 μg/mouse anti TNF-α s.c. twice weekly (Enbrel) and 0.3 mg/kg dexamethasone
Myeloperoxidase activity in intestinal tissue [3, 5]: statistically significant and similar effect; also recorded: on par with 100 μg/mouse anti TNF-α s.c. twice weekly (Enbrel) and 0.3 mg/kg dexamethasone
Mortality ([4]; 15 mice oral hBD-2 for 10 days vs 15 mice PBS, p<0.0001): highly statistically significant reduction of mortality
Share of treated mice that had died by day 35 ([4]; 15 mice, 1.2 mg/kg BW/day oral gavage day 0-10): less than 30%
Mice that had died by day 35 ([4]; 15 mice, 1.2 mg/kg BW/day oral gavage day 0-10, all 15 vehicle mice had died by day 35): 4
Mice still alive by day 100 ([4]; 15 mice, 1.2 mg/kg BW/day oral gavage day 0-10, p<0.0001): 8
IL-1β from myeloid cells ([4]; FACS analysis of the spleen): Reduced IL-1B production in myeloid cells; also recorded: reduction of IL-1β from myeloid cells
Neutrophils ([4]; FACS analysis of the spleen): Reduced proportion of neutrophils; also recorded: reduced number of neutrophils
Th1 cytokine production, IFN-γ ([4]; FACS analysis of the spleen, CD4, CD8 and CD69+CD4 T cells): reduced Th 1 cytokine production; also recorded: reduced Th1 cytokine production
Th1 cytokine production, TNF-α ([4]; FACS analysis of the spleen, CD4 and CD8 T cells): reduced Th 1 cytokine production; also recorded: reduced Th1 cytokine production
Weight loss ([4]; first 7 days following bone marrow transplantation): lost statistically significantly less weight
Microarray analysis of colon samples ([4]; hBD-2 treated group versus PBS): decreased inflammation, leucocyte and myeloid cell migration and tissue remodelling
Intestinal T cell infiltration [4]: Reduction of intestinal T cell and myeloid cell infiltration
Myeloid cell infiltration [4]: Reduction of intestinal T cell and myeloid cell infiltration
Infiltration with CD45+ leucocytes [4]: Reduced CD45+leucocyte cell migration
Infiltration with CD45+ leucocytes ([4]; listed as hBD2): reduced the infiltration
Intestinal T cell infiltration ([4]; listed as hBD2): reduced
Myeloid cell infiltration ([4]; listed as hBD2): reduced
IL-6 concentration ([4]; serum): reduction of TNF-α and IL-6 concentrations
IL-10 concentration ([4]; serum): increased concentration of IL-10
TNF-α concentration ([4]; serum): reduction of TNF-α and IL-6 concentrations
Histology score of the colon ([4]; vs PBS): statistically significant reduction of histology score; also recorded: highly statistically lower
Histology score of the liver ([4]; vs PBS): statistically significant reduction of histology score; also recorded: highly statistically lower
Histology score of the small intestine ([4]; vs PBS): statistically significant reduction of histology score; also recorded: highly statistically lower
